Square brackets hold non-standard residues; d marks the D form. Peptide text beside a SMILES is read from it. * marks the point of attachment. ξ: configuration not given here. Cbz = O=C(OCc1ccccc1)*; ξL = CC(C)CC(N)C(=O)O
What was measured:
[1] = test system: normal 4-month old female mice; test: In vivo administration of BT-GSI-XII to normal mice: BMD, microCT, serum bone markers, osteoclasts/osteoblasts, bone cytokine and osteoblast marker mRNA
Source text: Daily injections of PTH (iPTH) are thought to cause bone anabolism by increasing osteoblast number and function. However, iPTH can also increase bone resorption, which can limit bone gain. iPTH activates Notch signaling in osteocytes; and bone-targeted Notch inhibition using a γ-secretase inhibitor (GSI) conjugated to an alendronate-modified bone-targeting molecule (BT-GSI) decreases Notch signaling in bone, and reduces CTX (−40%) while preserving bone formation, leading to increases in BMD (4-7%) and cancellous bone volume (BV/TV; 30%).

[2] = test system: Notch target gene expression (Hes1); test: Notch target gene expression in 5TGM1 myeloma cells in vitro; assay type: cell-based; settings: for inhibition of Notch target gene expression: compounds pre-incubated at low pH to mimic acidic conditions in resorption sites, myeloma cells; for Notch target gene expression (Hes1-Hey1): in vitro, 5TGM1 myeloma cells, not pre-incubated
Source text: FIG. 1A. Graphs illustrating the effect on Notch target gene expression. In vitro, the control unconjugated GSI decreased Notch target gene expression (Hes1-Hey1) but BT-GSI-XII had no effect.
FIG. 1B. A graph illustrating the effect on Notch target gene expression.
(§1) Referring now to FIG. 1A, the control unconjugated GSI decreased Notch target gene expression (Hes1) in 5TGM1 myeloma cells, but BT-GSI-XII had no effect in vitro. […] (FIG. 1E).

Notch target genes = test: Notch target gene mRNA in bone, brain and gut of BT-GSI treated mice; assay type: in vivo; settings: compared to vehicle-treated mice
Source text: FIG. 2A. Graphs illustrating the effect on Notch target genes.
FIG. 2B. Graphs illustrating the effect on Notch target genes.
as §1

Hes1/5 expression = test: Ex vivo whole bone organ cultures, Hes1/5 expression; assay type: cell-based; settings: compounds non-pre-incubated
Source text: FIG. 1C. A schematic drawing illustrating an exemplary ex vivo system.
as §1

4-mo-old mice = test: Co-administration of BT-GSI with daily PTH injections (iPTH) in mice: bone mass, resorption and formation; assay type: in vivo
Description: (§2) To investigate whether a combination of iPTH (anabolic) and BT-GSI (anti-catabolic) increases bone mass to a higher extent than either agent alone, BT-GSI (5 mg/kg, 3×/wk) or saline was co-administered with iPTH (100 ng/g/day) or vehicle for 2 wks to 4-mo-old mice (n=10/group).
(§3) No changes were found in M-Csf expression. Additionally, unconjugated GSI reduced Rankl-induced osteoclast differentiation in vitro with an EC50˜0.1 μM (FIG. 12D). Further, the bone-targeting molecule alone required a dose 10 times higher than GSI to decreased osteoclastogenesis. Referring now to FIG. 13, co-administration of BT-GSI decreased iPTH-induced elevated serum P1NP (e.g., about 30% decrease); however, the co-administration of BT-GSI maintained the iPTH-induced elevated bone formation rate (20%) and osteoblast number/surface (20%) in cancellous bone (FIG. 13B-C). Further, mice receiving iPTH alone or combined with BT-GSI induced elevated mRNA levels of Alp1, Runx2, Bglap, and Wnt target genes, and reduced mRNA level of Sost in bone (FIG. 13 D-E).

[3] = test system: normal 4-month old female mice; test: In vivo administration of BT-GSI-XII to normal mice: tolerability, skin, gut toxicity biomarker
[4] = test system: Notch target genes Hes1/5/7 and Hey1/L; test: Co-administration of BT-GSI with iPTH in mice: Notch target gene expression in bone, brain, gut; assay type: in vivo; settings: 2 wks
Description: as §2

[5] = test system: Rankl-induced osteoclast differentiation; test: Rankl-induced osteoclast differentiation in vitro; assay type: cell-based; settings: read-out: EC50, reduction of Rankl-induced osteoclast differentiation
Description: as §3

[6] = serum, 5 μg/g, 3×wk, 2 weeks, mice
[7] = BT-GSI 5 mg/kg 3×/wk co-administered with iPTH, 2 wks
[8] = BT-GSI co-administered with iPTH
[9] = BT-GSI co-administered with iPTH, cancellous bone
[10] = 5 μg/g, 3×wk, 2 weeks, normal 4-month old female mice
[11] = single agent (iPTH 100 ng/g/day or BT-GSI 5 mg/kg 3×/wk)

Question: How did the “higher femoral BMD compared to control mice” value ([1]; 5 μg/g, 3×wk, 2 weeks, mice) turn out when `CC[C@H](C)[C@H](NC(=O)OCc1ccccc1)C(=O)NC(/C=N/N(C)CCCC(=O)NC(P(=O)(O)O)P(=O)(O)O)CC(C)C` (stereo partly drawn) [BT-GSI-XII] was run?
Answer: The value was 4%.

Question: What about the “higher spinal BMD compared to control mice” value ([1]; 5 μg/g, 3×wk, 2 weeks, mice) of the same molecule?
Answer: Its value is 7%.

Question: And the “higher total BMD compared to control mice” value ([1]; 5 μg/g, 3×wk, 2 weeks, mice)?
Answer: Its value is 3%.

Question: And the “increased cancellous bone volume (BV/TV) compared to vehicle-treated mice” value ([1]; microCT analysis)?
Answer: The value was 25%.

Question: And the “increased trabecular thickness compared to vehicle-treated mice” value ([1]; microCT analysis)?
Answer: The value was 10%.

Question: What about the “increased cancellous bone volume (BV/TV) compared to vehicle-treated mice” value ([1]; microCT analysis, listed as BT-GSI) of the same molecule?
Answer: The value was 30%.

Question: What about the “circulating levels of the bone formation marker P1NP” value [1, 6] of the same molecule?
Answer: Its value is “did not affect”.

Question: What about the “decrease of serum CTX, a marker of bone resorption” value [1, 6] of the same molecule?
Answer: Its value is 40%.

Question: What about the “increases in BMD” value ([1]; summary statement, sites not named) of the same molecule?
Answer: Its value is 4-7%.

Question: And the “bone formation and mineral apposition rates” value ([1]; treated mice)?
Answer: The value was “remained unchanged”.

Question: And the “decrease in the bone surface covered by osteoclasts compared to control mice” value ([1]; treated mice)?
Answer: Its value is 50%.

Question: And the number of osteoblasts ([1]; treated mice)?
Answer: Its number of osteoblasts is “remained unchanged”.

Question: What about the “Opg mRNA expression in bone” value ([1]; treated mice vs vehicle) of the same molecule?
Answer: The value was “increased”.

Question: What about the “Rankl/Opg ratio in bone” value ([1]; treated mice vs vehicle) of the same molecule?
Answer: Its value is “decreasing”.

Question: And the “Opg mRNA expression in bone” value ([1]; treated mice vs vehicle, listed as BT-GSI)?
Answer: Its value is “upregulated”.

Question: What about the “expression of osteoblast markers, including Wnt target genes and the osteocyte-derived Sost/Sclerostin” value ([1]; treated mice, bone) of the same molecule?
Answer: Its value is “remained unchanged”.

Question: And the “bone formation and mineral apposition rates” value ([1]; treated mice, listed as BT-GSI)?
Answer: Its value is “preserving”.

Question: What about the “inhibition of Notch target gene expression” value [2] of the same molecule?
Answer: Its value is “equal inhibition”.

Question: What about the “Notch target gene expression (Hes1-Hey1)” value [2] of the same molecule?
Answer: Its value is “no effect”.

Question: What about the “Notch target gene mRNA expression in brain or gut” value (Notch target genes; brain, gut) of the same molecule?
Answer: The value was “not in brain or gut”.

Question: And the “Notch target gene (Hey2, Hes5, Hes7, HeyL) mRNA expression in bone” value (Notch target genes; whole bone preparations)?
Answer: Its value is “decreases”.

Question: What about the Hes1/5 expression (Hes1/5 expression) of the same molecule?
Answer: Its Hes1/5 expression is “similarly decreased”.

Question: What about the “increase in femoral BMD” value (4-mo-old mice; [7]) of the same molecule?
Answer: Its value is 17%.

Question: What about the “increase in spinal BMD” value (4-mo-old mice; [7]) of the same molecule?
Answer: The value was 7%.

Question: What about the “increase in total BMD” value (4-mo-old mice; [7]) of the same molecule?
Answer: The value was 10%.

Question: And the “additional increase in cancellous BV/TV (L4 and distal femur) compared to the iPTH-induced increase” value (4-mo-old mice; [8])?
Answer: The value was 25%.

Question: What about the “additional increase in trabecular thickness compared to the iPTH-induced increase” value (4-mo-old mice; [8]) of the same molecule?
Answer: The value was 25%.

Question: And the “decrease of iPTH-induced elevated serum P1NP” value (4-mo-old mice; [8])?
Answer: The value was “about 30%”.

Question: What about the “effect on iPTH-induced increase in cortical bone area” value (4-mo-old mice; [8]) of the same molecule?
Answer: The value was “did not alter”.

Question: What about the “iPTH-induced elevated Rankl/Opg expression ratio in bone” value (4-mo-old mice; [8]) of the same molecule?
Answer: The value was “remained unchanged”.

Question: What about the “serum CTX level” value (4-mo-old mice; [8]) of the same molecule?
Answer: The value was “less than those exhibited in control mice”.

Question: What about the “iPTH-induced elevated bone formation rate” value (4-mo-old mice; [9]) of the same molecule?
Answer: Its value is “maintained”.

Question: What about the “iPTH-induced elevated osteoblast number/surface” value (4-mo-old mice; [9]) of the same molecule?
Answer: Its value is “maintained”.

Question: What about the osteoclast number/surface level (4-mo-old mice; [9]) of the same molecule?
Answer: Its osteoclast number/surface level is “less than those exhibited in control mice”.

Question: And the “mRNA level of Sost in bone” value (4-mo-old mice; iPTH combined with BT-GSI)?
Answer: The value was “reduced”.

Question: And the “mRNA levels of Alp1, Runx2, Bglap, and Wnt target genes in bone” value (4-mo-old mice; iPTH combined with BT-GSI)?
Answer: The value was “elevated”.

Question: What about the skin issues [3, 10] of the same molecule?
Answer: Its skin issues is “no skin issues were observed”.

Question: And the tolerability [3, 10]?
Answer: Its tolerability is “well tolerated”.

Question: What about the “Apsidin expression in the gut, a biomarker of gastrointestinal toxicity” value ([3]; treated mice vs vehicle, gut) of the same molecule?
Answer: Its value is “did not increase”.

Question: And the “iPTH-induced elevated expression of Hes1/5/7 and Hey1/L in bone” value ([4]; BT-GSI 5 mg/kg 3×/wk co-administered with iPTH 100 ng/g/day)?
Answer: Its value is “decreased the iPTH-induced elevated expression of Hes1/5/7 and Hey1/L to a level comparable to the control mice”.

Question: What about the “expression of Notch target genes in brain or gut” value (“expression of Notch target genes” for short) [4, 11] of the same molecule?
Answer: The value was “remained unchanged”.

Question: What about the “expression of Notch target genes” value ([4]; the combination of iPTH and BT-GSI) of the same molecule?
Answer: Its value is “remained unchanged”.

Question: Which results are given for `CC[C@H](C)[C@H](NC(=O)OCc1ccccc1)C(=O)N[C@H](C=O)CC(C)C` [GSI-XII, reference compound] (Cbz-Ile-Leu-aldehyde)?
Answer: Notch target gene expression (Hes1-Hey1) [2]: decreased; EC50 [5]: ~100 nM

Question: What does the source list for `CC[C@H](C)[C@H](NC(=O)OCc1ccccc1)C(=O)NC(C=O)CC(C)C` (stereo partly drawn) [GSI-XII, reference compound] (Cbz-Ile-[ξL]-aldehyde)?
Answer: inhibition of Notch target gene expression [2]: equal inhibition; Hes1/5 expression (Hes1/5 expression): similarly decreased

B1: iPTH: daily injections of PTH (parathyroid hormone) (protein, UniProt P01270 32-115, looked up)
Parathyroid hormone: SVSEIQLMHNLGKHLNSMERVEWLRKKLQDVHNFVALGAPLAPRDAGSQRPRKKEDNVLVESHEKSLGEADKADVNVLTKAKSQ
modifications: Parathyroid hormone
Question: B1 was tested. Which “increase in femoral BMD” value (4-mo-old mice; iPTH 100 ng/g/day alone, 2 wks) did it give?
Answer: Its value is 13%.

Question: What about the “increase in total BMD” value (4-mo-old mice; iPTH 100 ng/g/day alone, 2 wks) of the same molecule?
Answer: Its value is 7%.

Question: What about the “spinal BMD change” value (4-mo-old mice; iPTH 100 ng/g/day alone, 2 wks) of the same molecule?
Answer: The value was 0%.

Question: What about the “iPTH-induced elevated Rankl/Opg expression ratio in bone” value (4-mo-old mice; iPTH alone) of the same molecule?
Answer: The value was 1.5 fold.

Question: What about the “iPTH-induced elevated serum CTX” value (4-mo-old mice; iPTH alone) of the same molecule?
Answer: Its value is 30%.

Question: And the “iPTH-induced increase in cortical bone area” value (4-mo-old mice; iPTH alone)?
Answer: Its value is 8%.

Question: And the “mRNA level of Sost in bone” value (4-mo-old mice; iPTH alone)?
Answer: Its value is “reduced”.

Question: And the “mRNA levels of Alp1, Runx2, Bglap, and Wnt target genes in bone” value (4-mo-old mice; iPTH alone)?
Answer: Its value is “elevated”.

Question: And the “serum P1NP” value (4-mo-old mice; iPTH alone)?
Answer: The value was “elevated”.

Question: What about the “iPTH-induced elevated bone formation rate” value (4-mo-old mice; iPTH alone, cancellous bone) of the same molecule?
Answer: Its value is 20%.

Question: What about the “iPTH-induced elevated osteoblast number/surface” value (4-mo-old mice; iPTH alone, cancellous bone) of the same molecule?
Answer: The value was 20%.

Question: What about the “iPTH-induced elevated osteoclast number/surface” value (4-mo-old mice; iPTH alone, cancellous bone) of the same molecule?
Answer: Its value is 25%.

Question: What about the “expression of the Notch target genes Hes1/5/7 and Hey1/L in bone” value ([4]; iPTH 100 ng/g/day alone) of the same molecule?
Answer: The value was “increased”.

Question: And the “expression of Notch target genes” value [4, 11]?
Answer: Its value is “remained unchanged”.
